Assay results as given in PMC10461227, “Discovery of AD258 as a Sigma Receptor Ligand with Potent Antiallodynic Activity” (Journal of Medicinal Chemistry, 2023).
Several values for one entry are separate records, joined by “and”; a condition that tells them apart may be missing. Identical values can stand only once. Counter-ions that a name gives are not always drawn.

Columns and labels:
mice = assay: Rotarod test (motor coordination); assay type: in vivo; settings: 9d 1.25 mg/kg s.c., pregabalin 60 mg/kg s.c.; 45-240 min after administration
Procedure: The rotarod test is the most standard test to assess motor function and coordination in rodents. It consists of a rotating rod where the animal is placed, and the latency to fall is measured. Drugs that negatively affect motor coordination decrease the latency to fall.[2]
Motor coordination was assessed with an accelerating rotarod (Cibertec, Madrid, Spain), as previously described.[34] Briefly, mice were required to walk against the motion of an elevated rotating drum at increasing speed (4–80 rpm over 5 min), and the latency to fall was recorded with a cut-off time of 300 s. Mice were given three training sessions 24 h before drug testing. On the day of the test, rotarod latencies were measured immediately before the drug or vehicle (saline 5% DMSO) was administered (time 0) and several times (45, 90, 150, and 240 min) after the s.c. drug administration. As a comparison drug, we used pregabalin (60 mg/kg, s.c.), which has been reported to impair rotarod performance.[34]

[1] = tested on: human corneal epithelial cells (HCE); assay: MTT cell viability assay in HCE cells; settings: 20 h incubation; for HCE cells cell viability reduction (MTT): 100 μM
[2] = tested on: capsaicin-induced mechanical hypersensitivity (allodynia) in mice; assay: Capsaicin-induced mechanical hypersensitivity (allodynia) in mice; assay type: in vivo; settings: for response latency to mechanical stimulation: 40 mg/kg s.c., non-sensitized 44.19 ± 2.59 s, capsaicin + solvent 13.51 ± 1.93 s, mean ± SEM; for antiallodynic effect on capsaicin-induced allodynia (in words): 30 min before capsaicin; for dose of maximum antiallodynic effect: capsaicin-induced mechanical hypersensitivity
Procedure: We tested the effect of several of our compounds in capsaicin-induced mechanical hypersensitivity (allodynia) in mice (Figure 5). The increase in pain sensitivity in the area surrounding capsaicin injection results from central sensitization, and this process plays a pivotal role in chronic pain development and maintenance.[29]
Experiments were performed in female WT-CD1 mice (Charles River, Barcelona, Spain) weighing 25–30 g. […] The behavioral test was conducted during the light phase (from 9:00 to 15:00 h) and randomly throughout the estrous cycle.
Drug solutions were prepared immediately before the start of the experiments and injected s.c. in a volume of 5 mL/kg into the interscapular area. […] To test for the effects of PRE-084 on the antiallodynia induced by the other drugs, it was administered 5 min before the latter. Capsaicin was dissolved in 1% DMSO in physiological sterile saline to a concentration of 0.05 μg/μL. […] Control animals were injected with the same volume of the vehicle of capsaicin.
Animals were placed for 2 h in individual black-walled test compartments, which were situated on an elevated mesh-bottom platform with a 0.5 cm^2 grid to provide access to the ventral surface of the hind paws. […] Briefly, a nonflexible filament (0.5 mm diameter) was electronically driven into the ventral side of the right hind paw at least 5 mm away from the site of the injection toward the fingers. The intensity of the stimulation was set at 0.5g force.[30] When a paw withdrawal response occurred, the stimulus was automatically terminated, and the response latency was recorded. The filament was applied three times, separated by intervals of 0.5 min. The mean value of the three trials was considered the withdrawal latency time of the animal. A cutoff time of 50 s was used in each trial.

[3] = tested on: human corneal epithelial cells (HCE); assay: LDH cytotoxicity assay in HCE cells; assay type: cell-based; settings: 100 μM, 20 h incubation
Procedure: The permeability of cellular membranes following the exposures was determined by measuring the amount of released LDH (lactate dehydrogenase) enzyme from HCE cells. The commercial CytoTox 96 kit (Promega, Fitchburg, WI, USA) was used according to the manufacturer’s instructions. To measure maximal LDH release, 10 μL of 10× lysis solution was added to control wells 45 min before adding the CytoTox 96 reagent. To measure the amount of released LDH, 50 μL of each well was transferred to a fresh 96-well plate and 50 μL of CytoTox 96 reagent was added followed by a 30 min incubation period. Finally, 50 μL of stop solution was added and absorbance was recorded at 490 nm (Synergy H1 Hybrid Reader, BioTek, Winooski, VT, USA). Absorbance values were corrected by background values, and the percentage of LDH release was calculated using the following formula: 100 × experimental LDH release optical density (OD)/maximum LDH release OD.

S1R [4] = molecular target: T1, S1R (Rattus norvegicus, UniProt Q9R0C9); assay: S1R radioligand binding assay ([3H]-(+)-pentazocine, rat liver homogenates); settings: mean ± SD of at least two experiments in duplicate
T1 construct: liver homogenates from male Sprague Dawley rats; from tissue; host or cells: rat liver homogenate (male Sprague Dawley)
T1 sequence (Q9R0C9 whole entry): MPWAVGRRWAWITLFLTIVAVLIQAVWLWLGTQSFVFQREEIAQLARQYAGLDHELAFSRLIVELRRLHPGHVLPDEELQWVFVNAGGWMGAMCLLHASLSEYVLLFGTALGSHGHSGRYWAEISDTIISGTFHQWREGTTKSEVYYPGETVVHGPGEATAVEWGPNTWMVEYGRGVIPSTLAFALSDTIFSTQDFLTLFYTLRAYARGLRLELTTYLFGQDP

[5] = molecular target: T2, human serotonin transporter (Homo sapiens, UniProt P31645); assay: SERT binding ([3H]Paroxetine)
T2 construct: host or cells: HEK-293 cells
T2 sequence (P31645 whole entry): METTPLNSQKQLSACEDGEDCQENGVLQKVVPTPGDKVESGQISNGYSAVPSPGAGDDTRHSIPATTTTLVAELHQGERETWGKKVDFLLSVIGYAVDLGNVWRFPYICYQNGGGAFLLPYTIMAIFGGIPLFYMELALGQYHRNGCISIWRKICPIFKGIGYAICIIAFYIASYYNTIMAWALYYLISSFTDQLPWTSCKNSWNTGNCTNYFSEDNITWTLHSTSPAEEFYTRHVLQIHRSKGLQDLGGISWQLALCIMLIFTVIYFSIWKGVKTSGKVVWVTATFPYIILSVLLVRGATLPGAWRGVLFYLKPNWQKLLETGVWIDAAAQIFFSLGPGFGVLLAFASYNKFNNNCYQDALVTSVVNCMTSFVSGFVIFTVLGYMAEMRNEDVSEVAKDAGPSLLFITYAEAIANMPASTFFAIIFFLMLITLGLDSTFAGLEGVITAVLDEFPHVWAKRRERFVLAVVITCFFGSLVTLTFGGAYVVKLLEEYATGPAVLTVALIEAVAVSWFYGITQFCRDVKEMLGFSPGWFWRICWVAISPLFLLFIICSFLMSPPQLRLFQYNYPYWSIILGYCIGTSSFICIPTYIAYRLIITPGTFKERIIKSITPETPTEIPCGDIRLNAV

[6] = molecular target: T3, human serotonin 5-HT2A receptor (Homo sapiens, UniProt P28223); assay: 5-HT2A receptor binding ([3H]Ketanserin)
T3 construct: host or cells: CHO-K1 cells
T3 sequence (P28223 whole entry): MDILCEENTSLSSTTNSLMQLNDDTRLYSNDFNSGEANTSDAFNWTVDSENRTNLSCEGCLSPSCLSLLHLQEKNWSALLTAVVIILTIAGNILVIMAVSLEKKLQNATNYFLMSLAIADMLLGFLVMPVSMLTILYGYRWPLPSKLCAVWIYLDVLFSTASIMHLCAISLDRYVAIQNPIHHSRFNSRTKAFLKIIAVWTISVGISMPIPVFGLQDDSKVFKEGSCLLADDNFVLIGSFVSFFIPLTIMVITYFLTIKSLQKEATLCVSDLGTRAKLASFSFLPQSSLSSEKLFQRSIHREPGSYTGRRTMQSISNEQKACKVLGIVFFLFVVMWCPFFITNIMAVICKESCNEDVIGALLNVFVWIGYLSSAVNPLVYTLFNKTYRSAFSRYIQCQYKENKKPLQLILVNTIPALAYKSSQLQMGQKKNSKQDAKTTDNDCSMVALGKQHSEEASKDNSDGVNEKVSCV

Human plasma stability = assay type: in vitro ADME; settings: pH 7.4, 37 °C, read-out: plasma stability T1/2
S1R [7] = molecular target: T1, S1R; assay: S1R functional assay (radioligand binding with/without phenytoin, rat liver)
[8] = Water solubility (UHPLC-PDA); assay type: physicochemical; settings: free base, ultrapure water, rt
hERG = hERG (Homo sapiens, UniProt Q12809); assay: hERG activity (Qube APC electrophysiology, CHO-K1 cells expressing human ERG); assay type: cell-based; settings: CHO-K1 cells that express human ERG, six concentrations 10^-10 to 10^-5 M
hERG, sequence (Q12809 whole entry): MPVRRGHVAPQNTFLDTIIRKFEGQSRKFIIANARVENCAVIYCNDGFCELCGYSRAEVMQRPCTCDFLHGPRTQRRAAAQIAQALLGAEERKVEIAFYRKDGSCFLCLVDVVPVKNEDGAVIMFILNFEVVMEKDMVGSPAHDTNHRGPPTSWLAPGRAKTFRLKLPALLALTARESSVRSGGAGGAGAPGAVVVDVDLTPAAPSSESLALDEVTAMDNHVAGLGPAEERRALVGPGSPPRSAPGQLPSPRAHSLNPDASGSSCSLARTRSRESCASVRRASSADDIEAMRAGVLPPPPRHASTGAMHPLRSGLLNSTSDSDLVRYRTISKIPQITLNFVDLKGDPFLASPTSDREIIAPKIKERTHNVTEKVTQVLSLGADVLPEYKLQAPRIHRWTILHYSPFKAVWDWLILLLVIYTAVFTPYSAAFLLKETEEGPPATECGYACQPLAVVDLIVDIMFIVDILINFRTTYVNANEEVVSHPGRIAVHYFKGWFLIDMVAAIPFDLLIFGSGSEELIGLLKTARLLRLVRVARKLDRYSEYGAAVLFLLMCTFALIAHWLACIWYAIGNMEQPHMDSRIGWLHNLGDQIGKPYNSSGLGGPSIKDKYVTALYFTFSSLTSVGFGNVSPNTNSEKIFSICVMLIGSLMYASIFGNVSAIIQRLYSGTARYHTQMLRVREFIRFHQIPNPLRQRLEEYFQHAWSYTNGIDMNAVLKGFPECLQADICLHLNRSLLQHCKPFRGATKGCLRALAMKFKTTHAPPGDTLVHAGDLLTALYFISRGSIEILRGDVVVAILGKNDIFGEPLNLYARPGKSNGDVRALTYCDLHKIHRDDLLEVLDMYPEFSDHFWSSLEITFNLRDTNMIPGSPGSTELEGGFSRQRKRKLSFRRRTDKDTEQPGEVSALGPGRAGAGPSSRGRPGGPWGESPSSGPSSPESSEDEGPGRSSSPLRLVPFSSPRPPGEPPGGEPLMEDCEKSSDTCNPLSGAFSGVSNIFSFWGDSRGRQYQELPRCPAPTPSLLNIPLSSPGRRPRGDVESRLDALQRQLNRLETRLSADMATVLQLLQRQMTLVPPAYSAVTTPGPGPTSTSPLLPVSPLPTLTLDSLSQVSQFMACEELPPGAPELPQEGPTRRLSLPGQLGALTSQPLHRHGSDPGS

[9] = Metabolic stability in human liver microsomes; assay type: in vitro ADME
Procedure: (§1) Moreover, in vitro metabolic studies were performed using mouse and human liver microsomes. Following incubation at 0.1 μM with the liver microsomes for 1 h, reaction samples were analyzed by LC–MS/MS at different time points (0, 15, 30, 45, 60 min).
(§2) In vitro metabolic stability studies were performed by Eurofins Cerep Quality Control Unit (France) using mouse and human liver microsomes fractions in accordance with their validation Standard Operating Procedure.

[10] = Metabolic stability in mouse liver microsomes; assay type: in vitro ADME
Procedure: as §1, §2

[11] = Chemical stability in phosphate buffer pH 7.4; assay type: physicochemical; settings: phosphate buffer pH 7.4, 37 °C; read-out: chemical stability T1/2
S2R = molecular target: T4, S2R (Rattus norvegicus, UniProt Q5U3Y7); assay: S2R radioligand binding assay ([3H]DTG with (+)-pentazocine mask, rat liver homogenates)
T4 construct: liver homogenates from male Sprague Dawley rats; from tissue; host or cells: rat liver homogenate (male Sprague Dawley)
T4 sequence (Q5U3Y7 1-176): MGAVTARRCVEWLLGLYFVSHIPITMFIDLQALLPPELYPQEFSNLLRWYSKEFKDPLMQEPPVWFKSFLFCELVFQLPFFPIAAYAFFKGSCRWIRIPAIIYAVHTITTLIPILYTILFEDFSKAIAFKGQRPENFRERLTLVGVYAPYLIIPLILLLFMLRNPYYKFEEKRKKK

CC(C)C[C@H](CN)CC(=O)O [pregabalin, reference compound]
latency to fall from the rotarod (in words) (mice): markedly reduced rotarod latencies

c1ccc(CCN2CCC3(CCN(CCc4ccccc4)C3)C2)cc1 [14a, 2,7-Diphenethyl-2,7-diazaspiro[4.4]nonane]
HCE cells cell viability reduction (MTT) [1]: 56%
response latency to mechanical stimulation [2]: 26.55 ± 3.55 s
antiallodynic effect on capsaicin-induced allodynia (in words) ([2]; s.c.): dose-dependent antiallodynic effects
dose of maximum antiallodynic effect ([2]; s.c.): 20 mg/kg
HCE cells cytotoxicity (LDH release) [3]: 13%

CN1CCN(CCc2ccc(Cl)c(Cl)c2)CC1 [BD1063, 1-[2-(3,4-dichlorophenyl)ethyl]-4-methylpiperazine dihydrochloride, reference compound]
Ki (S1R [4]): 14 ± 2.7 nM

N#Cc1ccc(N2CCC3(CCN(CCc4ccccc4)C3)C2)cc1 (stereo not shown) [9d, 4-(7-Phenethyl-2,7-diazaspiro[4.4]nonan-2-yl)benzonitrile]
inhibition at 1 µM [5]: < 50%
SERT % inhibition ([5]; at 1 μM): 39%
inhibition at 1 µM [6]: < 50%
5-HT2A % inhibition ([6]; at 1 μM): 42%
half-life (Human plasma stability): > 24 h
S1R functional profile (S1R [7]): antagonist
solubility at 24 h [8]: 710 µg/mL and 2140 µM
latency to fall from the rotarod (in words) (mice): no change in the latency to fall
HCE cells cell viability reduction (MTT) [1]: 28%
effect of PRE-084 on the antiallodynic effect of the compound ([2]; PRE-084 32 mg/kg s.c. given 5 min before the compound at its dose of maximum effect): fully reversed
antiallodynic effect on capsaicin-induced allodynia (in words) ([2]; s.c.): dose-dependent and full reversal of capsaicin-induced allodynia
IC50 (hERG): 85 nM
microsomal CLint at 1 h, 0.1 µM ([9]; 1 h incubation): 127 µL/min/mg
half-life at 1 h, 0.1 µM ([9]; 1 h incubation, read-out: human liver microsomes T1/2): 0.917 h
half-life at 0.1 μM ([9]; read-out: human liver microsomes metabolic half-time (T1/2) (converted)): ~1 h
microsomal CLint at 1 h, 0.1 µM ([10]; 1 h incubation): 124 µL/min/mg
half-life at 1 h, 0.1 µM ([10]; 1 h incubation, read-out: mouse liver microsomes T1/2): 0.933 h
half-life at 0.1 μM ([10]; read-out: mouse liver microsomes metabolic half-time (T1/2) (converted)): ~1 h
half-life [11]: > 24 h
HCE cells cytotoxicity (LDH release) [3]: 18%

CC(C)(C)OC(=O)N1CCC2(CCN(c3ccccc3)C2)C1 (stereo not shown) [6a, tert-Butyl-7-phenyl-2,7-diazaspiro[4.4]nonane-2-carboxylate]
Ki (S2R): 76.1 ± 1.2 nM
Ki (S1R [4]): 40.7 ± 0.95 nM

Cl.O=C(OCCN1CCOCC1)C1(c2ccccc2)CCCCC1 [PRE-084, reference compound]
HCE cells cell viability reduction (MTT) [1]: 58%
concentration above which cell viability is statistically significantly reduced (MTT) ([1]; HCE cells): above 20 μM

O=C(Cc1ccc(Cl)c(Cl)c1)N1CCC2(CCN(CCc3ccccc3)C2)C1 (stereo not shown) [15a, 2-(3,4-Dichlorophenyl)-1-(7-phenethyl-2,7-diazaspiro[4.4]nonan-2-yl)ethan-1-one]
antiallodynic effect on capsaicin-induced allodynia (in words) ([2]; s.c.): dose-dependent and full antiallodynic effect
dose of maximum antiallodynic effect ([2]; s.c.): 40 mg/kg
Ki (S1R [4]): 7.5 ± 1 nM

c1ccc(CCN2CCC3(CCN(c4ccccc4)C3)C2)cc1 (stereo not shown) [8a, 2-Phenethyl-7-phenyl-2,7-diazaspiro[4.4]nonane]
HCE cells cell viability reduction (MTT) [1]: 50%
response latency to mechanical stimulation [2]: 30.28 ± 5.02 s
antiallodynic effect on capsaicin-induced allodynia (in words) ([2]; s.c.): dose-dependent antiallodynic effects
dose of maximum antiallodynic effect ([2]; s.c.): 20 mg/kg
HCE cells cytotoxicity (LDH release) [3]: 16%

O=[N+]([O-])c1ccc(N2CCC3(CCN(CCc4ccccc4)C3)C2)cc1 (stereo not shown) [9a, 2-(4-Nitrophenyl)-7-phenethyl-2,7-diazaspiro[4.4]nonane]
dose from which significant antiallodynic effects are seen ([2]; s.c.): 5 mg/kg
antiallodynic effect on capsaicin-induced allodynia (in words) ([2]; s.c.): dose-dependent and full reversal of capsaicin-induced allodynia
dose of maximum antiallodynic effect ([2]; s.c.): 10 mg/kg
HCE cells cytotoxicity (LDH release) [3]: 23%
